From US6660742B2, “Compositions and methods of the use thereof achiral analogues of CC-1065 and the duocarmycins” (priority 2000, dated 2003)
“And” between values parts separate entries of the source, which are not always exact repeats. Equal entries are not always repeated. Where two headings read alike, the source gives them in different places.

How the values were obtained:
MDA-MB-435 = experiment: NCI screen, MDA-MB-435 (Breast Cancer); type: cell-based, human
Protocol: (§1) The compounds of this invention were also tested against the panel of 60 human cancer cell lines at the National Cancer Institute, Bethesda, Md. […] The cytrotoxicity studies were conducted using a 48 hour exposure, and measuring the optical density of sulforhodamide B-derived color.

SF-268 = experiment: NCI screen, SF-268 (CNS Cancer)
Protocol: (§2) The compounds of this invention were also tested against the panel of 60 human cancer cell lines at the National Cancer Institute, Bethesda, Md. (44). The cytrotoxicity studies were conducted using a 48 hour exposure, and measuring the optical density of sulforhodamide B-derived color.

HS 578T = experiment: NCI screen, HS 578T (Breast Cancer)
Protocol: as §2

U251 = experiment: NCI screen, U251 (CNS Cancer)
Protocol: as §1

IGROV1 = experiment: NCI screen, IGROV1 (Ovarian Cancer); type: cell-based, human
Protocol: as §1

OVCAR-8 = experiment: NCI screen, OVCAR-8 (Ovarian Cancer)
Protocol: as §2

BT-549 = experiment: NCI screen, BT-549 (Breast Cancer)
Protocol: as §2

LOX IMVI = experiment: NCI screen, LOX IMVI (Melanoma)
Protocol: as §2

NCI-H23 = experiment: NCI screen, NCI-H23 (Non-Small Cell Lung Cancer)
Protocol: as §1

UACC-62 = experiment: NCI screen, UACC-62 (Melanoma)
Protocol: as §1

## O=C(Nc1cc(O)ccc1CCCl)c1cc2cc(NC(=O)c3cc4ccccc4o3)ccc2[nH]1 [Compound 1, 4-(2-Chloroethyl)-3-[5-(5-benzofuran-2-carboxamido)indole-2-carboxamido]phenol]
MDA-MB-435
  GI50: 1.89 µM
  TGI: 3.75E−06 Molar
MDA-MB-435; Log10 Concentration −4.0
  Percent Growth: −94%
MDA-MB-435; Log10 Concentration −6.0
  Percent Growth: 96%
SF-268
  Percent Growth: 68% and 70% and 88%
SF-268; SF-268
  GI50: 13.4 µM
  TGI: 2.78E−05 Molar
SF-268; SF-268, Log10 Concentration −4.0
  Percent Growth: −88%
SF-268; SF-268, Log10 Concentration −7.0
  Percent Growth: 88%
HS 578T
  Percent Growth: 89% and 77%
HS 578T; HS 578T
  GI50: 11.8 µM
  TGI: 3.96E−05 Molar
HS 578T; HS 578T, Log10 Concentration −4.0
  Percent Growth: −38%
HS 578T; HS 578T, Log10 Concentration −5.0
  Percent Growth: 57%
HS 578T; HS 578T, Log10 Concentration −7.0
  Percent Growth: 92%
U251
  Percent Growth: 77%
U251; U251
  GI50: 2.41 µM
  TGI: 1.23E−05 Molar
U251; U251, Log10 Concentration −4.0
  Percent Growth: −71%
U251; U251, Log10 Concentration −5.0
  Percent Growth: 7%
U251; U251, Log10 Concentration −7.0
  Percent Growth: 101%
IGROV1
  Percent Growth: −65%
IGROV1; IGROV1
  GI50: 1.5 µM
  TGI: 3.41E−06 Molar
IGROV1; IGROV1, Log10 Concentration −4.0
  Percent Growth: −94%
IGROV1; IGROV1, Log10 Concentration −6.0
  Percent Growth: 75%
IGROV1; IGROV1, Log10 Concentration −7.0
  Percent Growth: 98%
IGROV1; IGROV1, Log10 Concentration −8.0
  Percent Growth: 93%
OVCAR-8
  Percent Growth: −61%
OVCAR-8; OVCAR-8
  GI50: 1.32 µM
  TGI: 3.28E−06 Molar
OVCAR-8; OVCAR-8, Log10 Concentration −4.0
  Percent Growth: −63%
OVCAR-8; OVCAR-8, Log10 Concentration −6.0
  Percent Growth: 65%
OVCAR-8; OVCAR-8, Log10 Concentration −7.0
  Percent Growth: 94%
OVCAR-8; OVCAR-8, Log10 Concentration −8.0
  Percent Growth: 94%
BT-549
  Percent Growth: 110%
BT-549; BT-549
  GI50: 3.6 µM
  TGI: 2.05E−05 Molar
BT-549; BT-549, Log10 Concentration −4.0
  Percent Growth: −20%
BT-549; BT-549, Log10 Concentration −5.0
  Percent Growth: 9%
BT-549; BT-549, Log10 Concentration −6.0
  Percent Growth: 101%
BT-549; BT-549, Log10 Concentration −7.0
  Percent Growth: 103%
LOX IMVI
  Percent Growth: 106%
LOX IMVI; LOX IMVI
  GI50: 2.43 µM
  TGI: 6.93E−06 Molar
LOX IMVI; LOX IMVI, Log10 Concentration −4.0
  Percent Growth: −70%
LOX IMVI; LOX IMVI, Log10 Concentration −5.0
  Percent Growth: −17%
LOX IMVI; LOX IMVI, Log10 Concentration −6.0
  Percent Growth: 92%
LOX IMVI; LOX IMVI, Log10 Concentration −7.0
  Percent Growth: 101%
NCI-H23
  GI50: 1.67 µM
  TGI: 3.38E−06 Molar
NCI-H23; Log10 Concentration −4.0
  Percent Growth: −61%
UACC-62
  GI50: 1.97 µM
  TGI: 3.49E−06 Molar
UACC-62; Log10 Concentration −4.0
  Percent Growth: −99%
